For series [1], the target named is SARS-CoV envelope protein ion channels (SARS-CoV E protein) (Severe acute respiratory syndrome coronavirus, UniProt P59637). The following applies: cited from earlier work.
For another series, the system named is LPS induced lung injury. The following applies: amiloride pretreatment 10 mg/kg intravenous injection, rats; cited from earlier work.
Series [2] relates to store-operated calcium entry (SOCE). Kind of series: Store-operated calcium entry (45Ca2+ accumulation) in myotubes. Type of series: cell-based.
Another series concerns the target T1, NHE-1 (Mus musculus, UniProt Q61165).
T1 construct: time-course of ^22Na^+ influx studied in wild type and dystrophic myotube cultures; endogenous in cells; host or cells: primary wild type and dystrophic myotubes
In words: 22Na+ influx in myotube cultures. It is filed as cell-based.

Another series relates to human platelet swelling. Kind of series: In vitro platelet swelling assay with human platelet rich plasma. It is filed as cell-based. The following applies: OD 680 nm, pH 6.6, read-out: IC50 of inhibition of platelet swelling (+SEM).
Series [3] relates to platelet swelling. In words: Ex vivo platelet swelling, Eniporide phase I studies in healthy subjects. Details: species or system human.
Series [4] has as its system male mdx mice. In words: Cathepsin enzyme activity by optical imaging (skeletal muscle inflammation) in mdx mice. Particulars: 400 ppm Rimeporide in food, 5 weeks. It is filed as in vivo, mouse.
For series [5], the system named is male mdx mice. In words: Ex vivo H&E histopathology of diaphragm inflammation in mdx mice. Particulars: 400 ppm Rimeporide. Set-up: species or system mouse.
In series [6] the test system is platelet swelling. In words: Ex vivo platelet swelling, Rimeporide single oral ascending dose study. The following applies: single oral dose 300 to 600 mg, healthy male volunteers. Type of series: in vivo, human.
Series [7] deals with platelet swelling. Kind of series: Ex vivo platelet swelling, Rimeporide multiple ascending dose study. Type of series: in vivo, human. Particulars: day 3, multiple ascending dose study.
In series [8] the target is T2, sodium-hydrogen exchange activity (NHE-1) (Rattus norvegicus, UniProt P26431).
T2 construct: performed in rat PASMCs in vitro of both Normoxic and Su/Hx pulmonary hypertension (PH) rats; endogenous in cells; host or cells: primary rat PASMCs from normoxic and Su/Hx pulmonary hypertension rats
T2 sequence (P26431 whole entry): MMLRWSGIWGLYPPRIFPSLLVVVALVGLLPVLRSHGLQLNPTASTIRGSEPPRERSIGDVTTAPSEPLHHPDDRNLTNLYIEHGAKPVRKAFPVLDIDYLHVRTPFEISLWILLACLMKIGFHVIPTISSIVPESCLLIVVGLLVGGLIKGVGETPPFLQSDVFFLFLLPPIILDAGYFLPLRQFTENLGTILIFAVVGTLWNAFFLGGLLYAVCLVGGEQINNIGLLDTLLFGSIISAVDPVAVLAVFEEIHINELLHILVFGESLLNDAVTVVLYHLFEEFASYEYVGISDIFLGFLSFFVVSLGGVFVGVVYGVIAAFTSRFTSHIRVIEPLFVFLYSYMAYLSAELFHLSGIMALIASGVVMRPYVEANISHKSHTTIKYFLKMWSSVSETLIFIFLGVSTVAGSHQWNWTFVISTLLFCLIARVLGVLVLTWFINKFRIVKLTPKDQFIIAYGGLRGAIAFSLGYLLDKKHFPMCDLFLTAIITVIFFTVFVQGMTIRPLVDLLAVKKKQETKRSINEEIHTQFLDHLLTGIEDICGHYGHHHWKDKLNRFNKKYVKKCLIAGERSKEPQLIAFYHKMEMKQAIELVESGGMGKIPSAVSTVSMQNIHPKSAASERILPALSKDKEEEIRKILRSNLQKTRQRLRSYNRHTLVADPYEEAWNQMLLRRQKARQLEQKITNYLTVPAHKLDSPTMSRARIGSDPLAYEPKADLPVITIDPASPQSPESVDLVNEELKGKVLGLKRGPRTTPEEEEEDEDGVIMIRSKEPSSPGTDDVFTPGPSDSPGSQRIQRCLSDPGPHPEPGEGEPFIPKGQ
In words: NHE activity (BCECF) in rat pulmonary arterial smooth muscle cells. Type of series: cell-based. Particulars: PASMCs of Su/Hx pulmonary hypertension rats, 10^-6 to 10^-4 M.

Series [9] deals with Su/Hx rat model of PAH. Kind of series: Su/Hx rat model of PAH: echocardiography. The following applies: 100 mg/kg/day in drinking water week 5-8; Su/Hx+Rime vs Su/Hx, week 8. Type of series: in vivo.
For series [10], the system named is Su/Hx rat model of PAH. Kind of series: Su/Hx rat model of PAH: invasive hemodynamic monitoring. It is filed as in vivo. The following applies: 100 mg/kg/day in drinking water week 5-8; Su/Hx+Rime vs Su/Hx, week 8.
Series [11] has as its system Su/Hx rat model of PAH. Kind of series: Su/Hx rat model of PAH: right ventricle hypertrophy and fibrosis. Type of series: in vivo. The following applies: 100 mg/kg/day in drinking water week 5-8; Su/Hx+Rime vs Su/Hx, week 8.
For series [12], the system named is Su/Hx rat model of PAH. In words: Su/Hx rat model of PAH: pulmonary vascular fibrosis (Masson trichome). It is filed as in vivo. Particulars: 100 mg/kg/day in drinking water week 5-8; Su/Hx+Rime vs Su/Hx, week 8.
Series [13] concerns Su/Hx rat model of PAH. Kind of series: Su/Hx rat model of PAH: lung inflammation (CD68). Type of series: in vivo. The following applies: 100 mg/kg/day in drinking water week 5-8; Su/Hx+Rime vs Su/Hx, week 8.
Series [14] has as its system rat model of heart failure. Kind of series: Rat model of heart failure after myocardial infarction (permanent left coronary artery ligation). Type of series: in vivo.
Series [15] concerns rat model of myocardial infarction. In words: Rat model of myocardial infarction (30 min occlusion, 90 min reperfusion). It is filed as in vivo. The following applies: prophylactic, 0.01 to 1 mg/kg intravenously and 0.1 to 1 mg/kg per os.
The test system of series [16] is pigs of myocardial infarction. Kind of series: Anesthetized open-chest pig model of myocardial infarction. The following applies: 1 mg/kg iv before occlusion, 7 mg/kg iv before reperfusion. Type of series: in vivo.
The test system of the next series is dystrophic, mdx mice. Kind of series: Fibrosis in heart and diaphragm of mdx mice. It is filed as in vivo, mouse. Particulars: given in a preventive manner.
The conditions of series [17]: single oral dose.
Series [18] has as its system plasma circulating biomarkers (CCL15, KLK6, FAS, TNFα, MCP-1/CCL2). Set-up: Term, TNFα: unit not given here. Particulars: DMD patients, 4-week oral treatment, cited from earlier work.

“Also recorded” adds a separate entry of the source. Like-named read-outs stand apart in the source and are kept apart here. Where only a bound is given, the exact number is not on record here.

T1 sequence (Q61165 whole entry): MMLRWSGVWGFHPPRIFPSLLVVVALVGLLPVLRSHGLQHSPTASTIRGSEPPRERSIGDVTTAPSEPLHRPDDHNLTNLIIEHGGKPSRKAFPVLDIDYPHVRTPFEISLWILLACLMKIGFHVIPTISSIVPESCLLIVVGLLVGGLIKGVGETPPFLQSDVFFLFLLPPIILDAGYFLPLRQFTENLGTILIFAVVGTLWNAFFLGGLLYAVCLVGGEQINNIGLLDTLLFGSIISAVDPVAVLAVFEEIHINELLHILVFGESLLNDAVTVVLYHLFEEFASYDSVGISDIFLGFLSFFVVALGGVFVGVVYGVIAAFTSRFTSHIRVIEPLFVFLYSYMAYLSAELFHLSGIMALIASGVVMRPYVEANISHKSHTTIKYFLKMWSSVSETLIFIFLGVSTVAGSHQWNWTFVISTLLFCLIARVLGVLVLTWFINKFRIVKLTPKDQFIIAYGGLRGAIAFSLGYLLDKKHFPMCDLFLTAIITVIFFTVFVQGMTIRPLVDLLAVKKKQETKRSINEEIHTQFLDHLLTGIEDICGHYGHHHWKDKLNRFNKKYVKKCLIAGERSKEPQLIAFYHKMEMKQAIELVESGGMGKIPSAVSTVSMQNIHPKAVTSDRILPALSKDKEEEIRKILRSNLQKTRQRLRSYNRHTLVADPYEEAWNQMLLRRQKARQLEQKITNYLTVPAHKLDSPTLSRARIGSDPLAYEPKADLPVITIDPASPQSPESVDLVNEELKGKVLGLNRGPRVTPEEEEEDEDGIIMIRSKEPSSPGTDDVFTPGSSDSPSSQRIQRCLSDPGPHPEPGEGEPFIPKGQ
Sequence of SARS-CoV envelope protein ion channels (SARS-CoV E protein) (P59637 whole entry, looked up): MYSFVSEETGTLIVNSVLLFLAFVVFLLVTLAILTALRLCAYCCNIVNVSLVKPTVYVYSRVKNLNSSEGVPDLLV

On to `NC(N)=NC(=O)c1nc(Cl)c(N)nc1N` [Amiloride, 3,5-Diamino-N-carbamimidoyl-6-chlorpyrazin-2-carbamid], for which, in series [1], the “effect on activity of E-proteins (ion channel)” value is given as “quasi-ineffective”. Besides, the “LPS induced lung injury” value with LPS induced lung injury was “significantly inhibited”.
For the compound `Cc1nnsc1C(=O)Nc1ccc(-n2nc(C(F)(F)F)cc2C(F)(F)F)cc1` [BTP-2, reference compound], the “effect on store-operated calcium entry (SOCE)” value in series [2] is given as “abolished”. Further, the “inhibition of Ca2+ flux (SOCE protocol)” value in series [2] (10 μM) is “almost complete inhibition”.
As usually defined, the IC50 is the concentration needed to halve the response being measured. `CC(C)c1ccc(C(=O)NC(=N)N)cc1S(C)(=O)=O` [Cariporide, N-(Diaminomethylidene)-3-methanesulfonyl-4-(propan-2-yl) benzamide]: the “comparison of NHE inhibitors on 22Na+ fluxes (rank order)” value at NHE-1 is on record as “Zoniporide>Cariporide, EIPA>Rimeporide”. The “comparison of NHE inhibitors on SOCE (rank order)” value in series [2] is reported as “Zoniporide>Cariporide, EIPA>Rimeporide”. Moreover, the IC50 with human platelet swelling is 166 nM.
As for `CCN(c1nc(N)c(C(=O)N=C(N)N)nc1Cl)C(C)C` [EIPA, 5-(N-ethyl-N-isopropyl)amiloride, reference compound], the “comparison of NHE inhibitors on 22Na+ fluxes (rank order)” value at NHE-1 (myotubes) is given as “Zoniporide>Cariporide, EIPA>Rimeporide”. For the same compound, in [2] (myotubes), the “comparison of NHE inhibitors on SOCE (rank order)” value is reported as “Zoniporide>Cariporide, EIPA>Rimeporide”.
For the compound `Cc1cc(-n2cccc2)c(S(C)(=O)=O)cc1C(=O)NC(=N)N` [Eniporide, N-(diaminomethylidene)-2-methyl-5-methylsulfonyl-4-pyrrol-1-ylbenzamide], the concentration for half-maximal inhibition (IC50) in the series with human platelet swelling came to 30 nM. Further, the “inhibition of platelet swelling immediately post dosing” value with platelet swelling [3] (50 mg and above, intravenous) is recorded as “total inhibition”. The “inhibitory activity on platelet swelling” value in the series on platelet swelling [3] (2 times 200 mg as an infusion, 6 hours post first dose) came to 80%. Besides, the “inhibitory activity on platelet swelling remaining” value in the series with platelet swelling [3] (1.5 hours post dose, doses 100-200 mg) is reported as “More than 80%”; with platelet swelling [3] (3 hours post dose, doses 250-400 mg) it was “More than 80%”. Besides, the “dose from which platelet swelling was reduced” value in the series on platelet swelling [3] (healthy subjects, single intravenous dose) is at least 5 mg. Besides, in the series on platelet aggregation (human, in vivo), the “effect on platelet aggregation” value was “No clinically relevant effect”. In addition, the “effects on PT or APTT” value (human, in vivo) is listed as “no clinically relevant effects”.
As for `NC(N)=NC(=O)c1nc(Cl)c(N2CCCCCC2)nc1N` [HMA, 5-N, N-(hexamethylene)amiloride], in series [1], the “effect on activity of E-proteins (ion channel)” value is on record as “significantly reduced activity of E-proteins”.
`Cc1cc(S(C)(=O)=O)c(S(C)(=O)=O)cc1C(=O)NC(=N)N` [Rimeporide, N-(4,5-bismethanesulfonyl-2-methylbenzoyl)guanidine]: the “reduction in Cathepsin B activity, forelimb” value with male mdx mice [4] (forelimb) was −26%. The “reduction in Cathepsin B activity, hindlimb” value with male mdx mice [4] (hindlimb) is −22%. Moreover, in the series on male mdx mice [5], the “reduction in inflammation in the diaphragm (H&E) relative to vehicle” value stood at 44%. For the same compound, the inhibition at 100 µM on NHE-1 (100 μM, after 10 to 20 min of influx, myotube cultures, read-out: inhibition of 22Na+ accumulation / Na+ influx) is around 40%. The “comparison of NHE inhibitors on 22Na+ fluxes (rank order)” value on NHE-1 (myotubes) was “weakest inhibitor”. The “effect on 22Na+ accumulation” value on NHE-1 (pretreatment 1-100 μM, normal and dystrophic myotubes) is on record as “dose-dependent inhibition”. In addition, in [2], the “effect on store-operated calcium entry (SOCE)” value is “inhibition of SOCE; also recorded: dose-dependently prevented SOCE”. In addition, in series [2] (dystrophic myotubes), the “concentration giving strong SOCE inhibition reaching basal levels” value was found to be 30 µM and the “lowest concentration with statistical differences in SOCE inhibition” value worked out at 3 µM. For the same compound, the “comparison of NHE inhibitors on SOCE (rank order)” value in series [2] (myotubes) was “weakest inhibitor”. The IC50 in the series with human platelet swelling was found to be 455 nM. Besides, in the series on platelet swelling [6], the “rate constant of platelet swelling reaction post-dose vs pre-dose” value is on record as “post-dose decrease in rate constant was consistently observed”. Moreover, in the series on platelet swelling [7], the “subjects with some evidence of platelet swelling inhibition” value worked out at 67%. The “effect on NHE activity in PASMCs” value in series [8] is reported as “inhibits NHE activity in the PASMCs in a dose-dependent manner”. Moreover, in the series on Su/Hx rat model of PAH [9], the “Mean Pulmonary Arterial Pressure (mPAP)” value was “significantly lower mPAP”, the “Pulmonary Artery Acceleration Time/Ejection Time (PA AT/ET)” value is reported as “significantly higher PA AT/ET ratio”, the “RV cardiac output (CO)” value is “significantly higher RV CO” and the “RV free wall thickness” value is reported as “significantly lower RV free wall thickness”. In addition, the “RV internal diameter at diastole” value with Su/Hx rat model of PAH [9] is reported as “significantly lower RV internal diameter”. In the series with Su/Hx rat model of PAH [10], the “RV End Diastolic Pressure (EDP)” value was “significantly lower pressure”, the “RV Tau” value is “significantly lower Tau” and the RV systolic pressure result is reported as “significantly lower pressure”. In the series with Su/Hx rat model of PAH [11], the “RV fibrosis (Sirius Red)” value is recorded as “significantly lower fibrosis” and the “Right Ventricle/Left Ventricle+Septum (RV/LV+S) weight ratio” value was “no statistically significant difference”. Also, the pulmonary vascular fibrosis entry in the series on Su/Hx rat model of PAH [12] is given as “significantly lower fibrosis”. Further, the “percentage of CD68+ cells relative to total nuclei in lung tissue” value with Su/Hx rat model of PAH [13] is reported as “significantly lower”. In addition, in series [14], the “myocardial hypertrophy and left ventricular function” value is “significantly and dose dependently reduce myocardial hypertrophy and preserve left ventricular function”; the survival entry was “substantial improvement in survival”. For the same compound, the infarct size result in series [15] is given as “reduce dose dependent infarct size”. Further, in [16], the infarct size result is “decrease infarct size”. Further, in the series on dystrophic, mdx mice, the “fibrosis in the heart and the diaphragm” value was “antifibrotic effect”. Moreover, the “plasma concentration, Subject 15” value in [17] (1 hour post-dose) was determined as 159 ng/mL. Moreover, the “plasma concentration, Subject 15” value in [17] (3 hours post-dose) is 3690 ng/mL. Besides, in the series with platelet aggregation (Rimeporide single oral dose, 10 μM ADP, 3, 24 and 48 hours post-dose), the “effect on platelet aggregation” value is given as “no evidence of inhibition of platelet aggregation”. Moreover, the “effects on PT and APTT” value (Rimeporide single oral dose study) is listed as “No effects”. In series [18] (Luminex), the “Term, TNFα” value is reported as −0.1726. Further, in series [18] (OLink), the “Term, CCL15” value was −0.4489; the “Term, FAS” value is −0.2823; the “Term, KLK6” value is listed as −0.2612; the “Term, MCP-1/CCL2” value was −0.5675.
With `N=C(N)NC(=O)c1cnn(-c2cccc3ncccc23)c1C1CC1` [Zoniporide, reference compound], the “comparison of NHE inhibitors on 22Na+ fluxes (rank order)” value on NHE-1 (myotubes) was “Zoniporide>Cariporide, EIPA>Rimeporide”. In [2], the “comparison of NHE inhibitors on SOCE (rank order)” value is reported as “Zoniporide>Cariporide, EIPA>Rimeporide”.
Take `NC1=N[C@H](O)[C@H]2[C@H]3O[C@]4(O)O[C@@H]([C@@H](O)[C@@]2(N1)[C@@H]4O)[C@]3(O)CO` [tetrodotoxin]: the “further decrease of 22Na+ influx” value at NHE-1 was “around 8%”.

Source of the values: patent US20240041804A1, “NHE-1 INHIBITORS FOR THE TREATMENT OF CORONAVIRUS INFECTIONS” (priority 2020, published 2024).
